Results: the supplement of paper PMC10307832

What was measured:
Assay in all cases: relative viability (nuclei count vs DMSO), 5 days (fraction); higher = more cells survive
[1] = compound: C=CCNC1=C2C[C@@H](C)C[C@H](OC)[C@H](O)[C@@H](C)/C=C(\C)[C@H](OC(N)=O)[C@@H](OC)/C=C\C=C(/C)C(=O)NC(=CC1=O)C2=O [17-AAG] + C[C@]1(O)C[C@@H](c2nc(-c3ccc4ccc(-c5ccccc5)nc4c3)c3c(N)nccn32)C1 [Linsitinib] (partner 1 µM)
How it was run: (§1)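 Relative viability equals treated-well nuclei counts divided by vehicle-well nuclei counts. Counts came from 4× images of lung cancer cell lines grown in 1536-well plates for 5 days after pin-tool dosing on the day after seeding. Dosing used one drug alone or a fixed anchor-drug dose plus five library-drug doses (not always all listed) in √10 steps, and values are medians of duplicate plates.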

[2] = compound: C=CCNC1=C2C[C@@H](C)C[C@H](OC)[C@H](O)[C@@H](C)/C=C(\C)[C@H](OC(N)=O)[C@@H](OC)/C=C\C=C(/C)C(=O)NC(=CC1=O)C2=O [17-AAG] + O=C(CCCCCCC(=O)Nc1ccccc1)NO [Vorinostat] (partner 1 µM)
How it was run: as §1

[3] = compound: C=CCNC1=C2C[C@@H](C)C[C@H](OC)[C@H](O)[C@@H](C)/C=C(\C)[C@H](OC(N)=O)[C@@H](OC)/C=C\C=C(/C)C(=O)NC(=CC1=O)C2=O [17-AAG] + Nc1nc2[nH]cc(CCc3ccc(C(=O)N[C@@H](CCC(=O)O)C(=O)O)cc3)c2c(=O)[nH]1 [Pemetrexed] (partner 0.2 µM)
How it was run: as §1

[4] = compound: C=CCNC1=C2C[C@@H](C)C[C@H](OC)[C@H](O)[C@@H](C)/C=C(\C)[C@H](OC(N)=O)[C@@H](OC)/C=C\C=C(/C)C(=O)NC(=CC1=O)C2=O [17-AAG] + CC1(C)CCC(c2ccc(Cl)cc2)=C(CN2CCN(c3ccc(C(=O)NS(=O)(=O)c4ccc(N[C@H](CCN5CCOCC5)CSc5ccccc5)c(S(=O)(=O)C(F)(F)F)c4)cc3)CC2)C1 [Navitoclax] (partner 0.5 µM)
How it was run: as §1

Row | Cell Line | relative viability ([1]; first compound 0.00128 µM) | relative viability ([1]; first compound 0.004048 µM) | relative viability ([1]; first compound 0.0128 µM) | relative viability ([1]; first compound 0.04048 µM) | relative viability ([1]; first compound 0.128 µM) | relative viability ([2]; first compound 0.00128 µM) | relative viability ([2]; first compound 0.004048 µM) | relative viability ([2]; first compound 0.0128 µM) | relative viability ([2]; first compound 0.04048 µM) | relative viability ([2]; first compound 0.128 µM) | relative viability ([3]; first compound 0.00128 µM) | relative viability ([3]; first compound 0.004048 µM) | relative viability ([3]; first compound 0.0128 µM) | relative viability ([3]; first compound 0.04048 µM) | relative viability ([3]; first compound 0.128 µM) | relative viability ([4]; first compound 0.00128 µM) | relative viability ([4]; first compound 0.004048 µM) | relative viability ([4]; first compound 0.0128 µM) | relative viability ([4]; first compound 0.04048 µM) | relative viability ([4]; first compound 0.128 µM)
1 | NCI-H2347 | 0.91 | 0.84 | 0.997 | 0.656 | 0.37 | 0.569 | 0.557 | 0.524 | 0.329 | 0.379 | 0.426 | 0.463 | 0.517 | 0.376 | 0.331 | 0.908 | 0.737 | 0.74 | 0.441 | 0.245
2 | NCI-H2405 | 1.02 | 0.737 | 0.262 | 0.219 | 0.194 | 1.08 | 0.994 | 0.391 | 0.209 | 0.193 | 1.05 | 0.956 | 0.267 | 0.186 | 0.156 | 0.98 | 0.71 | 0.231 | 0.271 | 0.165
3 | NCI-H3122 | 1.02 | 0.985 | 0.254 | 0.207 | 0.138 | 0.934 | 0.816 | 0.219 | 0.111 | 0.0733 | 0.198 | 0.191 | 0.127 | 0.122 | 0.11 | 1.02 | 1.02 | 0.949 | 0.194 | 0.159
4 | PC-3 [JPC-3] | 1 | 0.883 | 0.959 |  | 0.911 | 1 | 0.819 | 0.795 | 0.503 | 0.8 | 1.23 | 1.12 | 1.18 | 0.491 | 0.85 | 0.794 | 0.82 | 0.835 |  | 0.793
5 | PC-14 | 1 | 0.879 | 0.575 | 0.169 | 0.124 | 0.683 | 0.464 | 0.0532 | 0.081 | 0.056 | 0.143 | 0.166 | 0.111 | 0.0924 | 0.0882 | 1.04 | 1.02 | 1.02 | 0.118 | 0.0935
6 | RERF-LC-KJ | 0.857 | 0.886 | 0.923 | 0.881 | 0.275 | 0.796 | 0.686 | 0.475 | 0.321 | 0.222 | 0.47 | 0.514 | 0.33 | 0.255 | 0.219 | 1.09 | 0.747 | 0.712 | 0.254 | 0.234
7 | SK-LU-1 | 1.19 | 0.455 | 0.352 | 0.212 | 0.191 | 0.86 | 0.556 | 0.293 | 0.253 | 0.199 | 0.999 | 0.63 | 0.28 | 0.27 | 0.19 | 0.818 | 0.164 | 0.135 | 0.152 | 0.136
8 | SK-MES-1 | 1 | 1.01 | 0.598 | 0.282 | 0.165 | 1.1 | 1.03 | 0.514 | 0.182 | 0.179 | 0.951 | 0.781 | 0.284 | 0.171 | 0.153 | 1.17 | 1.12 | 0.951 | 0.162 | 0.131
9 | SW 1573 | 0.987 | 0.901 | 0.647 | 0.249 | 0.128 | 0.782 | 1.01 | 0.241 | 0.128 | 0.0675 | 0.819 | 0.93 | 0.164 | 0.11 | 0.0923 | 0.704 | 0.955 | 0.74 | 0.142 | 0.0734
10 | UMC-11 | 0.967 | 0.943 | 0.751 | 0.299 | 0.178 | 0.467 | 0.363 | 0.343 | 0.229 | 0.222 | 0.793 | 0.741 | 0.576 | 0.246 | 0.183 | 0.363 | 0.37 | 0.304 | 0.17 | 0.138
